Some results are limits rather than exact numbers.

In the case of `Cc1cnccc1Nn1ccc2ccccc21`, the melting point (as a rule, the temperature, or range, at which the solid turns liquid) was in the range of 78 to 80 °C. The figure for `CSc1coc2ccccc2c1=O` is 103 to 105 °C. Consider `O=C1c2ccccc2C(=O)N1CCC(=O)N(c1ccccc1)c1ccccc1`, for which the melting point was 140 °C.

Turning to `CN1C[C@@H]2C[C@@]1(C(=O)c1ccc(-c3[nH]nc4c3C(=O)c3c(NC(=O)NN5CCOCC5)cccc3-4)s1)CN2`, the melting point is 224 to 225 °C. Compound `CC(C)Oc1cc(CCCOc2nn(C)cc2CC(=O)O)n(Cc2ccc(Cl)cc2Cl)n1` displayed a melting point of 96 to 97 °C. The figure for `CC(C)(C)OC(=O)C(C)(C)Oc1ccc2c(c1)Nc1ccccc1S2` is 138 to 140 °C. With `CC[C@H](C)[C@H](NC(=O)OC(C)(C)C)C(=O)N[C@H](C(=O)N[C@@H](Cc1ccc2ccccc2c1)[C@@H](O)[C@@H](O)CC(C)C)[C@@H](C)CC`, the melting point lay within 168 to 169 °C. As for `CCOC(=O)C(C)(C)Oc1ccc(-c2ccc(CNC(=O)c3cc(Cl)ccc3OC)cc2)cc1`, the figure is less than 20 °C; as for `O=C(Nc1ccccc1Sc1ccccc1)N[C@@H](Cc1ccc(NC(=O)c2c(Cl)cccc2Cl)cc1)C(=O)O`, 220 °C. `CC(=O)OC1CCC2(C)C(=CCC3C2C(OC(C)=O)CC2(C)C3CCC2(O)C(=O)CO)C1` (configuration not stated): the melting point lay in the range of 231 to 233 °C. As for `CNC(=O)c1cc2c(nc(C)n2C)c2c1CCC(OC)(c1ccccc1C)O2` (configuration not stated), the figure is 257 to 261 °C. Compound `CSc1c(NCc2ccncc2)cnn(C(C)(C)C)c1=O` yielded a melting point of 107 to 110 °C. As for `Cn1nnc(NC(=O)C2c3ccccc3Oc3ccccc32)n1`, the melting point came to 247 °C.

For `Nc1sc2c(c1C(=O)c1ccco1)CCC2`, the melting point was in the range of 149 to 153 °C. The figure for `CC(C)C[C@H](NCc1ccc(OC(C)(C)C)cc1)C(=O)N1CCN(C(c2ccc(F)cc2)c2ccc(F)cc2)CC1` is 56 to 61 °C; for `CN(C)c1cc2nc(C(=O)O)c(=O)[nH]c2cc1[N+](=O)[O-]` it is 194 to 196 °C; for `CN(C)CC1CCc2cc(NC(=O)c3ccc(-c4ccc(Cl)c(Cl)c4)cc3)ccc2C1` (configuration not stated) it is 143 to 145 °C. The figure for `CCOC(=O)c1cnc2ccc(OCC)nc2c1Nc1ccc(OCC(O)CO)cc1` (configuration not stated) is 143 to 145 °C. The figure for `Nc1nc2c(c(Nc3ccc(Br)cc3)n1)-c1ccccc1C2` is 214 to 215 °C; for `Nc1ccc(CC2CCN(S(=O)(=O)N3CCCCC3)CC2)cc1` it is 144 to 145 °C; for `CCc1[nH]c2ccc(OC)cc2c1/C=C/C(=O)c1ccncc1` it is 214 to 215 °C. For `CCCCc1nc2c(N)nc3ccccc3c2n1CCNS(=O)(=O)c1ccc(C)cc1`, the melting point fell in the range of 187 to 188 °C.

`COC(=O)NNC(=O)CCCl` came in with a melting point of 129 °C. In the case of `c1ccc2nc(COc3ccc4[nH]ccc4c3)ccc2c1`, the melting point fell in the range of 134 to 137 °C. Turning to `COc1ccc(-c2ccc3[nH]c(=O)ccc3c2)cc1`, the melting point was 262 to 264 °C. As for `O=C(NCCCCCCCNC(=O)c1ccc(OC(F)F)cc1)c1ccc(OC(F)F)cc1`, the figure is 138 to 139 °C; as for `CC(C)N(C(=O)c1ccc(OCCCCCOc2ccc(C(N)=NO)cc2)cc1O)C(C)C`, 195 to 197 °C. The figure for `CCCCC1(N(C)C)CCC(c2[nH]c3ccc(F)cc3c2C)(c2[nH]c3ccccc3c2C(COC(N)=O)c2ccccc2)CC1` (configuration not stated) is 101 to 105 °C; for `CSCCNC(=O)N(C)c1cnc(-c2cncc(F)c2)s1` it is 117 to 119 °C; for `CCOC(=O)c1sc(C)nc1O` it is 104 °C.

`CCC(Br)C(=O)Nc1c(C)cccc1C` (configuration not stated) yielded a melting point of 180 to 190 °C. For `CCCc1nc(S(=O)(=O)Nc2c(F)cccc2F)nn1-c1ccccc1`, the melting point was 148 to 150 °C. The figure for `O=C(c1cccs1)c1cnn2c(-c3cccc(NC(=O)C4CCCCC4)c3)ccnc12` is 239 to 240 °C; for `Fc1ccc(Cn2c(NC3CCN(CCNC(=S)N4CCCCC4)CC3)nc3ccccc32)cc1` it is 176 °C. On to `COc1cccc(C(F)(F)F)c1NS(=O)(=O)c1nc2nc(O)cc(O)n2n1`, for which the melting point fell in the range of 237 to 243 °C. As to `O=S(CCCCCOc1ccc(C2=C(c3ccccc3)CCCc3cc(O)ccc32)cc1)Cc1ccccc1` (configuration not stated), the melting point came out at 196 °C. The figure for `O=[N+]([O-])c1cnc(Sc2nc(-c3ccc(Cl)cc3)n[nH]2)s1` is 181 to 184 °C; for `CC(C)(C)OC(=O)NCCNC(=O)C1CCN(C(=O)OC(C)(C)C)CC1` it is 172 to 174 °C.

In the case of `CC(CN1CCCC1)N1c2ccccc2Sc2ccc(C(=O)NCc3ccccc3[N+](=O)[O-])cc21` (racemic), the melting point amounted to 95 °C. The figure for `COc1cc(C2C(C(=O)O)c3ccccc3C(=O)N2C)cc(OC)c1OC` (configuration not stated) is 194 to 195 °C; for `O=C(N[C@H]1CC[C@H](CCN2CCN(c3nccc4c3CCO4)CC2)CC1)C1(O)CCC1` it is 178 °C. As for `COc1ccc2cc([C@H](C)C(=O)OCCC(C)(C)C)ccc2c1`, the figure is 92 to 94 °C.

Compound `Cn1nc2ccc(OCCCN3CCC(OC(c4ccccc4)c4ccccc4)CC3)nn2c1=O` gave a melting point of 139 to 140 °C. The figure for `FC(F)c1cc(-c2ccc(C(F)(F)F)cc2)nc2cncn12` is 173 °C; for `CCN(c1ccc(Cl)cc1C(N)=O)S(=O)(=O)c1ccc(C)cc1` it is 148 to 150 °C; for `Cc1cc(C)c2c(n1)N(CCN(C)C)C(=O)N(C)C2` it is 105 to 107 °C. Compound `CCCCn1c(=O)c2c(cnn2S(=O)(=O)CCC)n(CCCC)c1=O` came in with a melting point of 44 to 48 °C. As for `CCCC(=O)c1cnc2c(OC)cccc2c1Nc1ccc(O)cc1`, the melting point was in the range of 270 to 272 °C. As for `CC(=O)OC1CSC(Oc2cccc(-c3ccc(C)cn3)c2)C(OC(C)=O)C1OC(C)=O` (configuration not stated), the figure is 140 °C; as for `CCCc1nc2c(N)nc3ccccc3c2n1CC1(O)CCSCC1`, 243 to 244 °C. In the case of `CCOC(=O)c1cn(-c2ccc(OC)cc2)[nH]c1=O`, the melting point was in the range of 125 to 127 °C.

`c1c(C(CN2CCNCC2)N2CCNCC2)nc(N2CCCC2)nc1N1CCCC1` (configuration not stated) returned a melting point of 148 to 149 °C.

Compound `CC12C=CC(O)CC1CCC1C2CCC2(C)C(C#N)CCC12` (configuration not stated) registered a melting point of 129 to 133 °C. The figure for `CCCOc1ccc(S(C)(=O)=O)cc1C(=O)Nc1c(CC)nn(CC2CCCN2C)c1C(N)=O` (configuration not stated) is 217 to 221 °C; for `CC(C)(C)OC(=O)c1ccc(CN(CCc2ccccc2)C(=O)OC(C)(C)C)c(N)c1` it is 105 to 106 °C; for `CCCCCCC1(CCCCCC)c2cc(Cl)ccc2-c2ccc(Cl)cc21` it is 66 to 67 °C. The figure for `CCOC(=O)c1cn(-c2cc3ccccc3cn2)cn1` is 161 to 162 °C. The compound `COc1ccnc(N2CCN(CC3(CNC(C)=O)C=CC=CC3)CC2)n1` (configuration not stated) displayed a melting point of 144 to 145 °C. `Nc1cccc(SC(CCc2ccc(Cl)cc2)Cn2ccnc2)c1` (configuration not stated) returned a melting point of 89 to 91 °C.

In turn, `COc1ccc(NC(C)=O)c(Sc2ccc(C#N)cc2[N+](=O)[O-])c1` yielded a melting point of 195 to 199 °C. As for `O=C(O)c1ccc(-c2nc(-c3ccc(OC(F)(F)F)cc3)cs2)cc1`, the figure is 245 to 246 °C; as for `COc1ccc(CCN(C(C)=O)c2c(C)c(C)c3c(c2C)C(c2ccc(C(C)C)cc2)C(C)(C)O3)cc1` (configuration not stated), 134 to 136 °C; as for `CC1(C)CCC2(CC1S(=O)(=O)c1ccccc1)OCCO2` (configuration not stated), 113 to 115 °C. As for `CC(C)c1ccc2nc(C(F)(F)F)c(C(=O)O)c(O)c2c1`, the figure is 206 °C; as for `Cc1cn([C@H]2C=C[C@@H](O)C2)c(=O)nc1-n1cncn1` (racemic), 143 to 146 °C.

Consider `O=C(O)c1ccc(N2CCCC2)c(NC(=O)C(CS)Cc2ccccc2)c1` (configuration not stated), for which the melting point was in the range of 229 to 234 °C.

For the compound `O=C(Nc1ccc(NCCCO)nc1)c1cc2cc(C(F)(F)F)cnc2n1Cc1cccc(F)c1`, the melting point was in the range of 207 to 210 °C.

`C#CCCCCCCNC(=O)C(F)(F)F` returned a melting point of 29.5 to 30 °C. The figure for `N#CCOc1cc2ccccc2cc1I` is 105 to 107 °C. As for `CC(C)c1nn(-c2ccc(C(F)(F)F)cn2)cc1CO`, the figure is 119 to 120 °C; as for `CC=CC(=O)c1ccc(CCCCNC(C)=O)cc1`, 64 to 66 °C. The figure for `CC1(C)Oc2ccc([N+](=O)[O-])cc2C=C1CBr` is 107 °C; for `O=C1OC(=Nc2ccc(F)cc2F)C2=C1CCCC2` it is 81 to 84 °C. On to `CCOC(=O)c1c(SC)nc(-c2ccc(F)cc2)n(-c2ccc(SC)cc2)c1=O`, for which the melting point lay in the range of 166 to 169 °C. As for `COc1cccc(OCCCN2CCC(C(O)(c3ccc(F)cc3)c3ccc(F)cc3)CC2)c1`, the figure is 107 to 108 °C; as for `O=C1N[C@H](CO)C[C@H]1C1CCCCC1`, 96 to 97 °C; as for `O=C(NCc1ccc2cc(O)ccc2c1)c1cc2ccccc2o1`, 200 to 202 °C.

In turn, `Cc1noc(-c2ccc(C(F)(F)F)cc2)c1C(=O)Nc1ccccc1C(=O)O` registered a melting point of 205 to 206 °C. The figure for `Cc1nc(N2CCC(c3ccc(F)cc3)CC2)c([N+](=O)[O-])c(=O)n1CCCCO` is 154 to 156 °C; for `CC(C)(C)c1cc(CCc2ccccc2NC(=O)NCCCCc2ccccc2)cc(C(C)(C)C)c1O` it is 157 °C; for `Cc1c(NC(=O)c2ccc(-c3ccc(F)cc3)cc2)ccc2cc(CN(C)C)cnc12` it is 161 to 163 °C. The figure for `CCn1c(-c2ccnc3ccccc23)nc(-c2ccncc2)c1-c1ccc(Cl)cc1` is 167 to 169 °C. As for `CNC(=O)c1cn(C)c(=O)cc1Nc1ccc(I)cc1F`, the figure is 252 to 254 °C; as for `COC(=O)c1scc(-c2ccccc2OC)c1-n1cccc1`, 148 °C.

`COc1cc2c(cc1OC)C(Cc1ccc(NC(C)=O)c(I)c1)N(C(=O)C(F)(F)F)CC2` (configuration not stated) came in with a melting point of 174 to 175 °C.

In the case of `CN1C(=O)CN=C(c2ccccc2)c2cc(CN)ccc21`, the melting point was determined as 201 °C.

`CC(C)c1cc(C(=O)CI)cc(C(C)C)c1O`: the melting point was 127 to 128 °C.

(Values after a melting point compilation (Tetko et al.; mined from patent text by program, amines drawn as free bases though some values may be those of a salt).)
